What was measured:
TNF-a = TNF-a ELISA of nasal secretions after nasal application of imiquimod in macaques; type: in vivo, Macaca mulatta
Text: (§1) The assay was limited to examining nasal secretions following nasal application (both nares) of imiquimod, because it is believed that this is the entry site where an immune response will be first observed. The assay evaluated the appearance of […] IFN-α and TNF-a in Macaca mulatta macaques and compared it with a control group treated with a base cream (without imiquimod) or simply anesthetized for the same time interval as the treated group.
(§2) The significance of the data is two-fold. First, intranasal administration of imiquimod cream (5%) produced enough IFN-a in a short period of time, so the cream can be applied daily in order to have 5-6 h of good efficacy. Thus, for example, one can begin applying the cream prior to encountering a known viral area such as an airplane. However, the cream has known cytotoxic effects (mediated through the cytokine production), especially if applied for weeks, so extended application would not be recommended. In the assay, TNF-a remained high for at least 6 h. In the treated group of macaques, the cream was washed away with warm water after the experiments. […] The cream needs to be applied to induce maximum concentration of IFN-a, but it may be removed when TNF-a continues to be elevated (after 6 h).
(§3) The control group (n=3) and the treated group (n=5) were sedated with glycopyrolate 0.01 mg/kg+acetaminophen 0.2 mg/kg and anesthetized with zolazepam (Telazol) 10 mg/kg intramuscular. […] Physical examination after each sample and at 6 h, 12 h, and 24 h post anesthesia consisted of examining each macaque for fever, erythema, erosion, flaking, and lacrimation.
(§4) IFN-a and TNF-a enzyme-linked immunoabsorbent assays (ELISA). Levels of IFN-a and TNF-a were measured using commercially available multispecies kit (PBL Biomedical Laboratories) (product #41105-1). The range of detection was 10-500 pg/ml (high sensitivity protocol).

TLR7 = target: T1, TLR7 (Homo sapiens, UniProt Q9NYK1); details: cited from earlier work
T1 sequence (Q9NYK1 27-1049): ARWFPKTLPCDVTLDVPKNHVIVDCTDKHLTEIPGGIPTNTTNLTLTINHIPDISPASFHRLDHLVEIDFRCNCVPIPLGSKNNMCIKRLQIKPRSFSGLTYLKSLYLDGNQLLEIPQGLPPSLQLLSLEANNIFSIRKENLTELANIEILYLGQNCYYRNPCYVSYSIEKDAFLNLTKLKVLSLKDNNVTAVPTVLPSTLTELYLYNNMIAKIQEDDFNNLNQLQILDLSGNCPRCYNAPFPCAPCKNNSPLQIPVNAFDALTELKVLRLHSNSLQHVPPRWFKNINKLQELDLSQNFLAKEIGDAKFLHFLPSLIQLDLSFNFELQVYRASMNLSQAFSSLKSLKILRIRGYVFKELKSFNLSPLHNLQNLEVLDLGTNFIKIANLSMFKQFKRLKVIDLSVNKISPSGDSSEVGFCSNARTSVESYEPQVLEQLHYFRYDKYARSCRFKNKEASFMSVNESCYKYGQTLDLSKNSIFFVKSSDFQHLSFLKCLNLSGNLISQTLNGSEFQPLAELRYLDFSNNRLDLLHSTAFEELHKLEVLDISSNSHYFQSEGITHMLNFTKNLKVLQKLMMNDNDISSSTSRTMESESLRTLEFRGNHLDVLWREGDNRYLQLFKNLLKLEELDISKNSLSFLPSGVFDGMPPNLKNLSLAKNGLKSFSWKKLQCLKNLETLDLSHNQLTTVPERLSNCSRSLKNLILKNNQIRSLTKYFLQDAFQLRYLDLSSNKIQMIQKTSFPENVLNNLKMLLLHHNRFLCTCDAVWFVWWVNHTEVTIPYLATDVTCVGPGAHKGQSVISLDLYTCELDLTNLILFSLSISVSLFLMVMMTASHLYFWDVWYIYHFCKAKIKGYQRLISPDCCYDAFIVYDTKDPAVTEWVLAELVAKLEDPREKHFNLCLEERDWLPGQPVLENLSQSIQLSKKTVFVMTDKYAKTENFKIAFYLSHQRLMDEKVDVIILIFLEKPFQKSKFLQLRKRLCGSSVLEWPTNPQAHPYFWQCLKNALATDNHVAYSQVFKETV

IFN-a mRNA = IFN-a mRNA in postnasal swabs by quantitative competitive RT-PCR in macaques
[1] = Physical examination of macaques for adverse or cytotoxic effects after nasal Aldara
[2] = tested on: purified plasmacytoid dendritic cells; details: cited from earlier work
viral rhinitis [3] = experiment: Viral rhinitis test subjects, delayed or once-daily Aldara in each nostril (Example 2); type: in vivo, human; details: applied more than 2 days after the onset of the cold symptoms
Description: The swab head was inserted into a naris.
Infected Test Subject #1 developed a sore throat with tingling in larynx, pharynx and uvula. 12 hours later, Subject 1 also developed congestion of the nose. One day later, the subject's initial symptoms intensified, and the subject further developed systemic symptoms such as malaise and headache. More than twenty four hours after the initial viral rhinitis symptoms appeared, Aldara™ was applied in each nostril with a Q-tip swab.
A 4 mm^3 dab of salve was placed on the swab head. The swab head was inserted into a naris. […] The subject was also treated with 2 teaspoons of standard cough suppressant guaifenesin/dextromethorphan (Wal-Tussin). The next day, malaise and headache were more pronounced and Aldara™ was reapplied with Q-tip to each nostril as described above. Also, 2 teaspoons of guaifenesin/dextromethorphan was administered.
Infected Test Subject #2 developed common cold with rhinorrhea and nose congestion. Aldara™ was applied once to each nostril every day for 3 days.

HSV-2 [4] = experiment: Remission interval between genital herpes outbreaks after intranasal Aldara regimens (Example 3); type: in vivo, human; details: after 2 to 4 regimens
Description: The patients were diagnosed with HSV-2 due to typical outbreak symptoms such as lesions. […] Thus, the contents were applied thoroughly along the inside surface of both nares. Initial application of Aldara™ to all the four patients occurred within 12 hours after the appearance of first symptoms resembling an outbreak of genital herpes. The application procedure was repeated every 12 hours up to 48 hours so that a total of four applications was administered to each patient.
Prior to treatment with Aldara™, the four patients were having herpes outbreaks at fairly regular intervals. Patients 1, 2 and 3 were experiencing outbreaks every 2 to 3 months and Patient 4 was having outbreaks once a month. Each of the four patients then began treatment by undergoing the 48 hour Aldara™ regimen detailed above each time he or she experienced an outbreak. After undergoing 2 to 4 regimens, each patient experienced a prolonged period of remission before the next outbreak.

IFN-a = IFN-a ELISA of nasal secretions after nasal application of imiquimod in macaques; type: in vivo, Macaca mulatta
Text: as §1, §2, §3, §4

viral rhinitis [5] = tested on: viral rhinitis
Text: In each of the tests, an imiquimod salve was used. The formulation was that commonly used to treat warts and sold under the brand name Aldara™. The salve was applied to each naris of the test subject by use of a common cotton swab. Either a 4 mm^3 dab of salve or ½ pack of 5% Aldara™ was placed on the swab head. The swab head was inserted into a naris. The swab was moved around inside the naris to distribute the salve over the mucosal membrane of the naris. Immediately, after application of the Aldara™ to the subject's first naris, a swab was used to apply the Aldara™ to the subject's second naris. Immediately after application to each naris, the salve was massaged into the mucosal membrane of each naris.
A test sample of six patients was treated for viral rhinitis using imiquimod (5% topical cream Aldara™, manufactured by 3M Corporation, St. Paul, Minn.). The patients were diagnosed with viral rhinitis due to initial symptoms such as congested nasal passages (rhinitis), nasal drip or rhinorrhea, and sneezing. Contents from ½ packet of a standard imiquimod formulation such as, for example, Aldara™ were applied with a cotton swab into both nares by massaging gently but thoroughly. Approximately the contents from ½ packet of 5% Aldara™ was applied thoroughly along the inside surface of both nares. Initial application of Aldara™ to all the six patients occurred within 24 hours after the appearance of first symptoms resembling viral rhinitis, in order to maximize the efficiency of imiquimod in stimulating the immune system when the viral load is presumably smaller. The procedure was repeated every 12 hours for up to 48 hours. The imiquimod packets were refrigerated after opening, and the remaining contents were used for subsequent applications.
The patients were monitored for changes in the viral rhinitis symptoms.

HSV-2 [6] = details: 235 human patients; topical application to herpes lesions; cited from earlier work
[7] = nasal secretions, p<0.0001 versus control group

## CC(C)Cn1cnc2c(N)nc3ccccc3c21 [imiquimod]
TNF-a; 6 h post nasal treatment
  TNF-a level relative to the controls: 3 times
TNF-a; 6 h post treatment
  TNF-a level: remaining high
TNF-a; [7]
  TNF-a increase over time (ELISA, FIG. 6B): 540 ng/mg protein
TNF-a; post treatment
  Time of TNF-a peak: 4 h
TLR7
  Activity at TLR7: TLR7 agonists
IFN-a mRNA; samples taken 3-5 h after application, p=0.004 versus controls
  IFN-a level in treated animals, mean: 2.3 IFN-a/albumin mRNA×10^3
IFN-a mRNA; samples taken 3-5 h after application, related to albumin mRNA
  IFN-a level in treated animals, range: 0.84-5.20 mRNA×10^3
IFN-a mRNA; single nasal application
  Increase of IFN-a messenger RNA levels in nasal secretions compared with untreated macaques: 2-5 fold
[1]; cream used during short period of time
  Adverse reactions to treatment in macaques: No adverse reactions
[1]; examined at 6 h, 12 h, or 24 h, cream washed away after the experiments
  Cytotoxic effects on examination: No animal had cytotoxic effects when examined at 6 h, 12 h, or 24 h, except one animal, which had an episode of lacrimation for 12 h post treatment
[2]
  IFN-a induction: induce IFN-a
Viral rhinitis [3]
  Effectiveness of the treatment with late application: decreased markedly
HSV-2 [4]; Patient 1, pre-treatment interval 2-3 months
  Post-Treatment Remission Interval (Approximate): ~3.5 years
HSV-2 [4]; Patient 2, pre-treatment interval 2-3 months
  Post-Treatment Remission Interval (Approximate): ~6 months
HSV-2 [4]; Patient 3, pre-treatment interval 2-3 months
  Post-Treatment Remission Interval (Approximate): ~10 months
HSV-2 [4]; Patient 4, pre-treatment interval 1 month
  Post-Treatment Remission Interval (Approximate): ~2 months
IFN-a; 3 h post treatment
  IFN-a level relative to basal level: 5 times basal level
IFN-a; 4 h post treatment
  IFN-a level: near maximal level
IFN-a; 6 h post treatment
  IFN-a level: near basal level
IFN-a; [7]
  IFN-a increase over time (ELISA, FIG. 6A): 630 ng/mg protein
IFN-a; single nasal application
  Time of rapid induction of IFN-a post treatment: 1 to 5 h
Viral rhinitis [5]; one patient inhaled imiquimod
  Effect of accidental inhalation of imiquimod: severe flu-like symptoms that spontaneously subsided within 24 hours
Viral rhinitis [5]; one patient with ulcerative colitis
  Aggravation of ulcerative colitis during treatment: did not suffer any further aggravation
Viral rhinitis [5]; six patients, untreated viral rhinitis about a week or 10 days
  Complete disappearance of symptoms (nasal congestion, sore throat, headache; malaise), time of treatment: ≤ 48 h
Viral rhinitis [5]; throughout the course of treatment
  Side effects reported by patients: No untoward side effects
HSV-2 [6]
  Outbreak recurrence times, imiquimod versus placebo: no statistically significant difference
